Laboratory results reported in the supplement of paper PMC10307832.

Experiments:
Test in all cases: relative viability (nuclei count vs DMSO), 5 days (fraction); higher = more cells survive
201T = tested on: 201T
How it was run: (§1)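 Lung cancer cell lines in 1536-well plates got either a single drug or a fixed anchor-drug dose together with five library-drug doses (not always all listed) in √10 steps, by pin tool, on the day after seeding. Nuclei were counted after 5 days, and relative viability is the treated-to-vehicle ratio of nuclei counts. Values are medians of duplicate plates.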

BEN = tested on: BEN
How it was run: as §1

CAL-12T = tested on: CAL-12T
How it was run: as §1

COR-L 105 = tested on: COR-L 105
How it was run: as §1

H3255 = tested on: H3255
How it was run: as §1

HARA = tested on: HARA
How it was run: as §1

HCC-15 = tested on: HCC-15
How it was run: as §1

HCC-827 = tested on: HCC-827
How it was run: as §1

LC-2-ad = tested on: LC-2-ad
How it was run: as §1

LCLC-103H = tested on: LCLC-103H
How it was run: as §1

LK-2 = tested on: LK-2
How it was run: as §1

LU99A = tested on: LU99A
How it was run: as §1

LXF-289 = tested on: LXF-289
How it was run: as §1

NCI-H1437 = tested on: NCI-H1437
How it was run: as §1

NCI-H1651 = tested on: NCI-H1651
How it was run: as §1

NCI-H1792 = tested on: NCI-H1792
How it was run: as §1

NCI-H2085 = tested on: NCI-H2085
How it was run: as §1

NCI-H2228 = tested on: NCI-H2228
How it was run: as §1

NCI-H23 = tested on: NCI-H23
How it was run: as §1

NCI-H2405 = tested on: NCI-H2405
How it was run: as §1

NCI-H322M = tested on: NCI-H322M
How it was run: as §1

RERF-LC-KJ = tested on: RERF-LC-KJ
How it was run: as §1

UMC-11 = tested on: UMC-11
How it was run: as §1

## O=c1[nH]c2ccccc2n1C1CCN(CCCC(c2ccc(F)cc2)c2ccc(F)cc2)CC1 [Pimozide] + CCNC(=O)c1noc(-c2cc(C(C)C)c(O)cc2O)c1-c1ccc(CN2CCOCC2)cc1 [Luminespib] (partner 0.01 µM)
201T; first compound 0.08 µM
  relative viability: 1.05
201T; first compound 0.253 µM
  relative viability: 1.02
201T; first compound 0.8 µM
  relative viability: 0.971
201T; first compound 2.53 µM
  relative viability: 0.961
201T; first compound 8 µM
  relative viability: 0.912
BEN; first compound 0.08 µM
  relative viability: 0.3
BEN; first compound 0.253 µM
  relative viability: 0.413
BEN; first compound 0.8 µM
  relative viability: 0.324
BEN; first compound 2.53 µM
  relative viability: 0.368
BEN; first compound 8 µM
  relative viability: 0.331
CAL-12T; first compound 0.08 µM
  relative viability: 0.305
CAL-12T; first compound 0.253 µM
  relative viability: 0.408
CAL-12T; first compound 0.8 µM
  relative viability: 0.186
CAL-12T; first compound 2.53 µM
  relative viability: 0.514
CAL-12T; first compound 8 µM
  relative viability: 0.168
COR-L 105; first compound 0.253 µM
  relative viability: 0.885
COR-L 105; first compound 0.8 µM
  relative viability: 0.631
COR-L 105; first compound 2.53 µM
  relative viability: 0.879
COR-L 105; first compound 8 µM
  relative viability: 0.687
H3255; first compound 0.253 µM
  relative viability: 0.926
H3255; first compound 0.8 µM
  relative viability: 0.684
H3255; first compound 2.53 µM
  relative viability: 0.883
H3255; first compound 8 µM
  relative viability: 0.799
HARA; first compound 0.253 µM
  relative viability: 0.949
HARA; first compound 0.8 µM
  relative viability: 0.684
HARA; first compound 2.53 µM
  relative viability: 0.568
HARA; first compound 8 µM
  relative viability: 0.795
HCC-15; first compound 0.08 µM
  relative viability: 0.308
HCC-15; first compound 0.253 µM
  relative viability: 0.288
HCC-15; first compound 0.8 µM
  relative viability: 0.257
HCC-15; first compound 2.53 µM
  relative viability: 0.175
HCC-15; first compound 8 µM
  relative viability: 0.308
HCC-827; first compound 0.253 µM
  relative viability: 0.58
HCC-827; first compound 0.8 µM
  relative viability: 0.413
HCC-827; first compound 2.53 µM
  relative viability: 0.625
HCC-827; first compound 8 µM
  relative viability: 0.582
LC-2-ad; first compound 0.08 µM
  relative viability: 1.1
LC-2-ad; first compound 0.253 µM
  relative viability: 0.969
LC-2-ad; first compound 0.8 µM
  relative viability: 0.935
LC-2-ad; first compound 2.53 µM
  relative viability: 0.985
LC-2-ad; first compound 8 µM
  relative viability: 0.993
LCLC-103H; first compound 0.08 µM
  relative viability: 0.942
LCLC-103H; first compound 0.253 µM
  relative viability: 1.01
LCLC-103H; first compound 0.8 µM
  relative viability: 0.762
LCLC-103H; first compound 2.53 µM
  relative viability: 0.899
LCLC-103H; first compound 8 µM
  relative viability: 0.948
LK-2; first compound 0.08 µM
  relative viability: 0.18
LK-2; first compound 0.253 µM
  relative viability: 0.165
LK-2; first compound 2.53 µM
  relative viability: 0.18
LK-2; first compound 8 µM
  relative viability: 0.188
LU99A; first compound 0.08 µM
  relative viability: 0.242
LU99A; first compound 0.253 µM
  relative viability: 0.247
LU99A; first compound 0.8 µM
  relative viability: 0.263
LU99A; first compound 2.53 µM
  relative viability: 0.242
LU99A; first compound 8 µM
  relative viability: 0.233
LXF-289; first compound 0.08 µM
  relative viability: 0.642
LXF-289; first compound 0.253 µM
  relative viability: 0.634
LXF-289; first compound 0.8 µM
  relative viability: 0.702
LXF-289; first compound 2.53 µM
  relative viability: 0.664
LXF-289; first compound 8 µM
  relative viability: 0.632
NCI-H1437; first compound 0.08 µM
  relative viability: 1.13
NCI-H1437; first compound 0.253 µM
  relative viability: 1.09
NCI-H1437; first compound 0.8 µM
  relative viability: 1.12
NCI-H1437; first compound 2.53 µM
  relative viability: 0.988
NCI-H1437; first compound 8 µM
  relative viability: 0.922
NCI-H1651; first compound 0.08 µM
  relative viability: 0.91
NCI-H1651; first compound 0.253 µM
  relative viability: 0.756
NCI-H1651; first compound 0.8 µM
  relative viability: 0.696
NCI-H1651; first compound 2.53 µM
  relative viability: 0.867
NCI-H1651; first compound 8 µM
  relative viability: 0.807
NCI-H1792; first compound 0.08 µM
  relative viability: 0.525
NCI-H1792; first compound 0.253 µM
  relative viability: 0.424
NCI-H1792; first compound 0.8 µM
  relative viability: 0.403
NCI-H1792; first compound 2.53 µM
  relative viability: 0.477
NCI-H1792; first compound 8 µM
  relative viability: 0.498
NCI-H2085; first compound 0.08 µM
  relative viability: 0.515
NCI-H2085; first compound 0.253 µM
  relative viability: 0.485
NCI-H2085; first compound 0.8 µM
  relative viability: 0.4
NCI-H2085; first compound 2.53 µM
  relative viability: 0.496
NCI-H2085; first compound 8 µM
  relative viability: 0.322
NCI-H2228; first compound 0.08 µM
  relative viability: 0.116
NCI-H2228; first compound 0.253 µM
  relative viability: 0.149
NCI-H2228; first compound 0.8 µM
  relative viability: 0.152
NCI-H2228; first compound 2.53 µM
  relative viability: 0.18
NCI-H2228; first compound 8 µM
  relative viability: 0.122
NCI-H23; first compound 0.08 µM
  relative viability: 0.236
NCI-H23; first compound 0.8 µM
  relative viability: 0.241
NCI-H23; first compound 2.53 µM
  relative viability: 0.195
NCI-H23; first compound 8 µM
  relative viability: 0.218
NCI-H2405; first compound 0.08 µM
  relative viability: 0.654
NCI-H2405; first compound 0.253 µM
  relative viability: 0.717
NCI-H2405; first compound 0.8 µM
  relative viability: 0.618
NCI-H2405; first compound 2.53 µM
  relative viability: 0.559
NCI-H2405; first compound 8 µM
  relative viability: 0.315
NCI-H322M; first compound 0.253 µM
  relative viability: 0.899
NCI-H322M; first compound 0.8 µM
  relative viability: 0.858
NCI-H322M; first compound 2.53 µM
  relative viability: 0.942
NCI-H322M; first compound 8 µM
  relative viability: 0.743
RERF-LC-KJ; first compound 0.08 µM
  relative viability: 1.09
RERF-LC-KJ; first compound 0.253 µM
  relative viability: 1.14
RERF-LC-KJ; first compound 0.8 µM
  relative viability: 1.08
RERF-LC-KJ; first compound 2.53 µM
  relative viability: 1.12
RERF-LC-KJ; first compound 8 µM
  relative viability: 0.964
UMC-11; first compound 0.08 µM
  relative viability: 1.2
UMC-11; first compound 0.253 µM
  relative viability: 1.03
UMC-11; first compound 0.8 µM
  relative viability: 0.976
UMC-11; first compound 2.53 µM
  relative viability: 1.11
UMC-11; first compound 8 µM
  relative viability: 1.18
